Assay [1] deals with Kappa-type opioid receptor (Homo sapiens) (UniProt P41145). Briefly: Binding affinity to human Kappa-opioid receptor expressed in CHO cell membrane assessed as inhibition of [3H]-U69593 binding to KOR incubated for 60 mins by radioligand binding assay. The assay is classed as cell membranes.
Assay [2] addresses Delta-type opioid receptor (Homo sapiens) (UniProt P41143). Nature of the assay: Binding affinity to human Delta-opioid receptor expressed in CHO cell membrane assessed as inhibition of [3H]DPDPE binding to DOR at 10 uM incubated for 60 mins by radioligand binding assay. Type of assay: cell membranes.
In assay [3] the target is Kappa-type opioid receptor (Homo sapiens) (UniProt P41145). Nature of the assay: Agonist activity at human Kappa-opioid receptor expressed in human U2OS cells co-expressing enzyme acceptor tagged beta-arrestin2 fusion protein assessed as increase in beta-arrestin2 recruitment at 10 uM incubated for 180 mins by DiscoverX pathHunter express beta-arrestin2 assay. Type of assay: functional, cell-based.

The target is the same in assay [4]. Briefly: Agonist activity at human Kappa-opioid receptor expressed in CHO cell membrane assessed as induction of [35S]GTPgammaS binding by measuring G protein activation incubated for 60 mins by liquid scintillation counting assay. Type of assay: functional, cell membranes. Background: Binding of GTPγS marks nucleotide exchange on a G protein.
Assay [5] has the same target. Nature of the assay: Potency index, ratio of SalA-VS-07 Ki to test compound Ki for Binding affinity to human Kappa-opioid receptor expressed in CHO cell membrane assessed as inhibition of [3H]-U69593 binding to KOR. Particulars: filed as agonist. Type of assay: cell membranes.

Calls of active or inactive are those of the source. The rule behind the calls is not given here.

The text below walks through data of ChEMBL document CHEMBL5576126, “Discovery of Novel, Selective, and Nonbasic Agonists for the Kappa-Opioid Receptor Determined by Salvinorin A-Based Virtual Screening” (J Med Chem, 2024).

Sequence of Kappa-type opioid receptor (Homo sapiens) (P41145 whole entry, the tested form may be a part): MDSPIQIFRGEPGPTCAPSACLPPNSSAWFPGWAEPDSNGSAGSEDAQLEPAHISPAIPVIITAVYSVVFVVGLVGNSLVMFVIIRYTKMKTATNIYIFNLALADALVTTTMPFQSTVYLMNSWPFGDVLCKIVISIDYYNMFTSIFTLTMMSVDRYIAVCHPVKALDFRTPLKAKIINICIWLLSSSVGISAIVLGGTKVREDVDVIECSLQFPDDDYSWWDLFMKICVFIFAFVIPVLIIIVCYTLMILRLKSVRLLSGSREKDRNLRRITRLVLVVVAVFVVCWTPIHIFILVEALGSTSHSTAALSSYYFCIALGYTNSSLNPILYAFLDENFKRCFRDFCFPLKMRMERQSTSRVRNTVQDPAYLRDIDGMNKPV
Sequence of Delta-type opioid receptor (Homo sapiens) (P41143 whole entry, the tested form may be a part): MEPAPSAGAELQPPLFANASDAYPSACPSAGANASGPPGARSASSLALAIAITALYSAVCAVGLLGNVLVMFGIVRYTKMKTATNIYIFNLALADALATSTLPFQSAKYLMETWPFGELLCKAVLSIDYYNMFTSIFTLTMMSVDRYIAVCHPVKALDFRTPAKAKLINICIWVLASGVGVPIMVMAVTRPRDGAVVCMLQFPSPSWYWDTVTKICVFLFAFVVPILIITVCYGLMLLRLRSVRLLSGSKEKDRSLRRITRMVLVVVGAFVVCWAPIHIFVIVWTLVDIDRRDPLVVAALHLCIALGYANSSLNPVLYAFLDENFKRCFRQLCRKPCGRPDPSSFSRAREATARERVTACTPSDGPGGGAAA

In the case of `Cc1cc2n(n1)C1(CCN(C(=O)c3ccc(Cl)cc3)CC1)CC(=O)N2CC1CC1`, the Activity result in assay [1] (filed as partial agonist) is “Dose-Dependent Effect”. For the same molecule, the result in assay [2] and in assay [3] was inactive.

As for `Cc1cc2n(n1)C1(CCN(C(=O)c3ccncc3)CC1)CC(=O)N2CC1CC1`, the outcome in assay [4] was inactive.

Consider `CCO[C@@]12Cc3c([nH]c4ccccc34)[C@]3(C)Oc4c(O)ccc5c4[C@@]31CCN(CC1CC1)C2C5`, for which, in assay [2], the result was Active.

`Cc1cc2n(n1)C1(CCN(C(=O)c3cccc(F)c3)CC1)CC(=O)N2CC1CC1`: the Activity entry in assay [1] (filed as agonist) was “Dose-Dependent Effect”. Besides, the outcome in assay [2] and in assay [3] was inactive. The Ratio Ki in assay [5] came to 6.
